Assays:
human GST-PIKFYVE = target: T1, human GST-PIKFYVE (Homo sapiens, UniProt Q9Y2I7); test: ADP-Glo kinase assay, enzyme inhibition activity against human PIKFYVE (Carna biosciences); format: biochemical; details: inhibitory activity at final compound concentration 10 nM; 1 hour at room temperature
T1 construct: GST; purchased Carna biosciences 11-118
Procedure, shortened: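 Human GST-PIKFYVE (glutathione Sepharose-purified) was reacted with substrate and ATP for 1 h at room temperature in 50 mM MOPS, 1 mM DTT, pH 7.2, with compound at 10 nM final. ADP formed was read by ADP-Glo luminescence; inhibition was calculated against no-enzyme (100%) and no-compound (0%) controls.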

PIKFYVE = target: T2, PIKFYVE (Homo sapiens, UniProt Q9Y2I7); test: NanoBRET TE Intracellular Kinase Assay, interaction of PIKFYVE and compounds in HEK293 cells; format: cell-based; details: IC50 class from BRET; HEK293 cells expressing PIKFYVE-NanoLuc; 2 hours incubation
T2 construct: host or cells: HEK293 (ATCC, CRL-1573)
T2 sequence (Q9Y2I7 whole entry): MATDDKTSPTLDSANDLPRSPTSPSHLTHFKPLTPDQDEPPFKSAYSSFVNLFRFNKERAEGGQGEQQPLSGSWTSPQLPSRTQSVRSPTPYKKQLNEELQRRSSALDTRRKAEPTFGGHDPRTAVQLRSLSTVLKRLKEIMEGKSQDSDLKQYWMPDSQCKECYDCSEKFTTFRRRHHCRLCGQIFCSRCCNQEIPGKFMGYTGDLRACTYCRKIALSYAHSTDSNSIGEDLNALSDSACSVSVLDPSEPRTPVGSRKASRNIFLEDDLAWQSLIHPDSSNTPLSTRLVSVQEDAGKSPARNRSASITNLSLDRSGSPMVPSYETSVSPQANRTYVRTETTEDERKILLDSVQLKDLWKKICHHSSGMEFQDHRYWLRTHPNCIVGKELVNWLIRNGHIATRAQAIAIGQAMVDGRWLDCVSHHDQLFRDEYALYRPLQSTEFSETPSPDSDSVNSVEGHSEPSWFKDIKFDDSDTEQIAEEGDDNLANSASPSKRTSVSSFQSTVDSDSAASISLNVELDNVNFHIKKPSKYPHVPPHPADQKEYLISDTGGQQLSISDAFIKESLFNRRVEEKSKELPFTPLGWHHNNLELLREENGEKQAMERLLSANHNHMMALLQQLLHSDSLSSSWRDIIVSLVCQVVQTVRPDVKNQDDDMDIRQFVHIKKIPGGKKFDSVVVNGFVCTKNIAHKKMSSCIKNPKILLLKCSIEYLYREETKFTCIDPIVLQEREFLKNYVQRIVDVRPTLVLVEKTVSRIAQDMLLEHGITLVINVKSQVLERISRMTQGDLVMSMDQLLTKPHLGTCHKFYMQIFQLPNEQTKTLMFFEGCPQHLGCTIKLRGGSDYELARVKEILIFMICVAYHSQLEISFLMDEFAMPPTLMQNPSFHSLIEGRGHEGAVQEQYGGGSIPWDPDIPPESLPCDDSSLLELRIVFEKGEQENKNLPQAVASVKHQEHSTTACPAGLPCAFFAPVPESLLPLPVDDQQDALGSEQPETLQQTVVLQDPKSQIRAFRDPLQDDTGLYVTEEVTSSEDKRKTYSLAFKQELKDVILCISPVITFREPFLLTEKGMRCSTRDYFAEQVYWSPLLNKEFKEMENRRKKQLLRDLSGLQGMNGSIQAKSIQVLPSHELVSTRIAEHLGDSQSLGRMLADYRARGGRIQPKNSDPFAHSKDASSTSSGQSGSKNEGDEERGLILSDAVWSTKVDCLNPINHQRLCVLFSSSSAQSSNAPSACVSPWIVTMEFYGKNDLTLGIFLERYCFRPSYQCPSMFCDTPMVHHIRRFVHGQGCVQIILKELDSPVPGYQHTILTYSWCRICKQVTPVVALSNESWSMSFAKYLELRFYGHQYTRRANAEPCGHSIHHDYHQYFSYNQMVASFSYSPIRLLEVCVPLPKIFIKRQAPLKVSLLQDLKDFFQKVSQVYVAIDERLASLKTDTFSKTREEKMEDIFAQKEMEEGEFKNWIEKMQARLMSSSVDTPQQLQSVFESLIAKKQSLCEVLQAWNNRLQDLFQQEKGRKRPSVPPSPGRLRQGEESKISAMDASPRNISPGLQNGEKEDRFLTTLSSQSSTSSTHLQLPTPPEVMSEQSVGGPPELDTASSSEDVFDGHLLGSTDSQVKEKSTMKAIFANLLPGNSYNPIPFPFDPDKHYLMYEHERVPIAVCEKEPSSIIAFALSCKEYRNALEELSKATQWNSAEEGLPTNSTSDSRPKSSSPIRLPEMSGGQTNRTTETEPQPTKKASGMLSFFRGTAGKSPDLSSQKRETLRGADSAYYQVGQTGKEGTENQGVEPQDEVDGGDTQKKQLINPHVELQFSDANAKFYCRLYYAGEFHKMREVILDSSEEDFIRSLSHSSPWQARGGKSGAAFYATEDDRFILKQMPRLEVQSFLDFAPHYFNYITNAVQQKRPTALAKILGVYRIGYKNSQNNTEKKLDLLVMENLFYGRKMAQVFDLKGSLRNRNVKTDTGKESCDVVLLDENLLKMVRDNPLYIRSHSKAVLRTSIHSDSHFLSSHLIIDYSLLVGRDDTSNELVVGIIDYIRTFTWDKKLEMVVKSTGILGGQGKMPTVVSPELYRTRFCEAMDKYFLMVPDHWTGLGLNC
Method: To predict the efficacy of the compounds according to Example on PIKFYVE in humans, the interaction between PIKFYVE and the compounds was tested using the HEK293 cell line derived from human embryonic kidney (ATCC, CRL-1573) via NanoBRETT TE Intracellular Kinase Assay Service of Carna biosciences Inc., (Japan). The evaluation method provided by Carna biosciences Inc., was shown below and the NanoBRET™ TE Intracellular Kinase Assay, K-8 Kit (Promega, CS1810C88) was used.
The HEK-293 cells cultured in Opti-MEM™ I Reduced Serum Medium (Thermo Fisher, 11058-021) were transfected with Transfection Carrier DNA (Promega, E4881), PIKFYVE-NanoLuc Fusion Vector (Promega, CS1810C225), and FuGENE HD Transfection Reagent (Promega, E2311) to produce cells expressing genes combining PIKFYVE and NanoLuc, followed by culturing 100 μl (2×10^5 cells/ml) each in 96-well plates (Corning, 3917).
10× compounds according to Examples or Comparative Examples prepared by concentration in 1× NanoBRET™ tracer reagent and DMSO were reacted in 96-well plates and incubated for 2 hours in a 37° C., 5% CO2 incubator.
After the reaction was completed, 3× Complete NanoBRET™ Nano-Glo Substrate solution was added to each well, and the reaction was allowed to run for 2-3 minutes at room temperature before BRET was measured using a GloMax Discover Multimode Microplate Reader (Promega).

T1 sequence (Q9Y2I7 whole entry): as above

Structure (SMILES) | ADP-Glo kinase assay (%, 10 nM) (human GST-PIKFYVE) [%] | IC50 (PIKFYVE) [nM]
COC(=O)N1CCC(n2cnc3c(N/N=C/c4cccc(C)c4)nc(N4CCOCC4)nc32)CC1 [Example 91, methyl (E)-4-(6-(2-(3-methylbenzylidene)hydrazinyl)-2-morpholino-9H-purin-9-yl)piperidine-1-carboxylate] | 73.33 | 10 to 20
Cc1cccc(/C=N/Nc2nc(N3CCOCC3)nc3c2ncn3-c2cccc(O)c2)c1 [Example 131, (E)-3-(6-(2-(3-methylbenzylidene)hydrazinyl)-2-morpholino-9H-purin-9-yl)phenol] | 91.40 | ≤ 10
Cc1cccc(/C=N/Nc2nc(N3CCOCC3)nc3c2ncn3CC(=O)c2cccc(F)c2)c1 [Example 46, (E)-1-(3-fluorophenyl)-2-(6-(2-(3-methylbenzylidene)hydrazinyl)-2-morpholino-9H-purin-9-yl)ethan-1-one] | 73.96 | 10 to 20
COc1cccc(-c2cccc3c(N/N=C/c4cccc(C)c4)nc(N4CCOCC4)nc23)c1 [Example 211, (E)-4-(8-(3-methoxyphenyl)-4-(2-(3-methylbenzylidene)hydrazinyl)quinazolin-2-yl)morpholine] | 64.14 | 20 to 30
Cc1cccc(/C=N/Nc2nc(N3CCOCC3)nc3c2ncn3C2CCN(C(=O)N3CCOCC3)CC2)c1 [Example 88, (E)-(4-(6-(2-(3-methylbenzylidene)hydrazinyl)-2-morpholino-9H-purin-9-yl)piperidin-1-yl)(morpholino)methanone] | 64.66 | 20 to 30
Cc1cccc(/C=N/Nc2nc(N3CCOCC3)nc3c2ncn3CC(F)(F)c2ccccn2)c1 [Example 26, (E)-4-(9-(2,2-difluoro-2-(pyridin-2-yl)ethyl)-6-(2-(3-methylbenzylidene)hydrazinyl)-9H-purin-2-yl)morpholine] | 80.87 | 10 to 20
Cc1cccc(/C=N/Nc2nc(N3CCOCC3)nc3c2ncn3CC(=O)c2ccc(C(F)(F)F)cc2)c1 [Example 45, (E)-2-(6-(2-(3-methylbenzylidene)hydrazinyl)-2-morpholino-9H-purin-9-yl)-1-(4-(trifluoromethyl)phenyl)ethan-1-one] | 67.70 | 20 to 30
Cc1cccc(/C=N/Nc2nc(N3CCOCC3)nc3c2ncn3CC(=O)c2cccn2C)c1 [Example 30, (E)-1-(1-methyl-1H-pyrrol-2-yl)-2-(6-(2-(3-methylbenzylidene)hydrazinyl)-2-morpholino-9H-purin-9-yl)ethan-1-one] | 76.90 | 10 to 20
Cc1cccc(/C=N/Nc2nc(N3CCOC[C@@H]3C)nc3c2ncn3-c2cccnc2)c1 [Example 97, (S,E)-3-methyl-4-(6-(2-(3-methylbenzylidene)hydrazinyl)-9-(pyridin-3-yl)-9H-purin-2-yl)morpholine] | 78.47 | 10 to 20
Cc1cccc(/C=N/Nc2nc(N3CCOCC3)nc3c2ncn3-c2ccnc(Cl)c2)c1 [Example 115, (E)-4-(9-(2-chloropyridin-4-yl)-6-(2-(3-methylbenzylidene)hydrazinyl)-9H-purin-2-yl)morpholine] | 92.24 | ≤ 10
Cc1cccc(/C=N/Nc2nc(N3CCOCC3)nc3c2ncn3CC(C)C)c1 [Example 17, (E)-4-(9-isobutyl-6-(2-(3-methylbenzylidene)hydrazinyl)-9H-purin-2-yl)morpholine] | 69.26 | 10 to 20
Cc1cccc(/C=N/Nc2nc(N3CCOCC3)nc3c(-c4c(C)noc4C)cccc23)c1 [Example 210, (E)-4-(8-(3,5-dimethylisoxazol-4-yl)-4-(2-(3-methylbenzylidene)hydrazinyl)quinazolin-2-yl)morpholine] | 65.10 | 20 to 30
Cc1cccc(/C=N/Nc2nc(N3CCOCC3)nc3c2ncn3-c2ccccc2)c1 [Example 119, (E)-4-(6-(2-(3-methylbenzylidene)hydrazinyl)-9-phenyl-9H-purin-2-yl)morpholine] | 80.61 | ≤ 10
Cc1cccc(/C=N/Nc2nc(N3CCOCC3)nc3c2ncn3CC2CC2)c1 [Example 21, (E)-4-(9-(cyclopropylmethyl)-6-(2-(3-methylbenzylidene)hydrazinyl)-9H-purin-2-yl)morpholine] | 60.95 | 20 to 30

Further lines, results first:

ADP-Glo kinase assay (%, 10 nM) (human GST-PIKFYVE) [%] | IC50 (PIKFYVE) [nM] | Structure (SMILES)
81.33 | ≤ 10 | Cc1cccc(-c2ccn(-c3nc(N4CCOCC4)nc4c3ncn4-c3cccnc3)n2)c1 [Example 118, 4-(9-(pyridin-3-yl)-6-(3-(m-tolyl)-1H-pyrazol-1-yl)-9H-purin-2-yl)morpholine]
65.27 | ≤ 10 | Cc1cccc(/C=N/Nc2nc(N3CCOCC3)nc3c2ncn3-c2cccc(OC3CC3)c2)c1 [Example 125, (E)-4-(9-(3-cyclopropoxyphenyl)-6-(2-(3-methylbenzylidene)hydrazinyl)-9H-purin-2-yl)morpholine]
86.29 | ≤ 10 | Cc1cccc(/C=N/Nc2nc(N3CCOCC3)nc3c2ncn3CC(=O)c2ccccc2C)c1 [Example 40, (E)-2-(6-(2-(3-methylbenzylidene)hydrazinyl)-2-morpholino-9H-purin-9-yl)-1-(o-tolyl)ethan-1-one]
89.87 | ≤ 10 | Cc1cccc(/C=N/Nc2nc(N3CCOCC3)nc3c2ncn3CCc2ccccc2)c1 [Example 18, (E)-4-(6-(2-(3-methylbenzylidene)hydrazinyl)-9-phenethyl-9H-purin-2-yl)morpholine]
83.61 | ≤ 10 | Cc1cccc(/C=N/Nc2nc(N3CCOCC3)nc3c2ncn3CCc2cccnc2)c1 [Example 80, (E)-4-(6-(2-(3-methylbenzylidene)hydrazinyl)-9-(2-(pyridin-3-yl)ethyl)-9H-purin-2-yl)morpholine]
94.29 | ≤ 10 | Cc1cccc(/C=N/Nc2nc(N3CCOCC3)nc3c2ncn3-c2cncc(C)c2)c1 [Example 145, (E)-4-(6-(2-(3-methylbenzylidene)hydrazinyl)-9-(5-methylpyridin-3-yl)-9H-purin-2-yl)morpholine]
91.20 | ≤ 10 | Cc1cccc(/C=N/Nc2nc(N3CCOCC3)nc3c2ncn3-c2ccncc2)c1 [Example 103, (E)-4-(6-(2-(3-methylbenzylidene)hydrazinyl)-9-(pyridin-4-yl)-9H-purin-2-yl)morpholine]
73.88 | ≤ 10 | Cc1cccc(/C=N/Nc2nc(N3CCOCC3)nc3c2ncn3-c2cc(C)ns2)c1 [Example 148, (E)-4-(6-(2-(3-methylbenzylidene)hydrazinyl)-9-(3-methylisothiazol-5-yl)-9H-purin-2-yl)morpholine]
89.07 | ≤ 10 | COc1ccccc1C(=O)Cn1cnc2c(N/N=C/c3cccc(C)c3)nc(N3CCOCC3)nc21 [Example 37, (E)-1-(2-methoxyphenyl)-2-(6-(2-(3-methylbenzylidene)hydrazinyl)-2-morpholino-9H-purin-9-yl)ethan-1-one]

Reference: patent publication US20250388582A1, “NOVEL BICYCLIC HETEROARYL COMPOUND AND USE THEREOF” (ILDONG PHARMACEUTICAL CO., LTD., priority 2022, published 2025)
